Legend:
Substance-K receptor = target: T1, Substance-K receptor (Homo sapiens, UniProt P21452); format: cell membranes, CHO, Membrane; note: in other assays of this panel Not Active means under 50% inhibition at 10 µM
T1 sequence (P21452 whole entry): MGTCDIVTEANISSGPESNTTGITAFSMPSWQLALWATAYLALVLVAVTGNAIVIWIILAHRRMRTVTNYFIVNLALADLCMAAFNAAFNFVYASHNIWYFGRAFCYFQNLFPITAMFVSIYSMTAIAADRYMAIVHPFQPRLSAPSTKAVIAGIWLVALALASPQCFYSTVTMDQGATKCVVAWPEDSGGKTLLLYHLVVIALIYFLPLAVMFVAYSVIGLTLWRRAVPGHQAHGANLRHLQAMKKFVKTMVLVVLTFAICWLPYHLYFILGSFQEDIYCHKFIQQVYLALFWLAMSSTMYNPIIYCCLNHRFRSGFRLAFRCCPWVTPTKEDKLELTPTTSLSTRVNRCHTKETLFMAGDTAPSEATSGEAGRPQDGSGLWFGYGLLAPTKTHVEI

[1] = target: Mitogen-activated protein kinase 3 (Homo sapiens, UniProt P27361); assay: DRUGMATRIX: Protein Serine/Threonine Kinase, ERK1 enzyme inhibition (substrate: Myelin Basic Protein); parameters: species or system Escherichia coli; settings: Not Active = under 50% inhibition at 10 µM
[2] = target: T2, Type-2 angiotensin II receptor (Homo sapiens, UniProt P50052); format: cell-based; settings: cho-k1; note: in other assays of this panel Not Active means under 50% inhibition at 10 µM
T2 sequence (P50052 whole entry): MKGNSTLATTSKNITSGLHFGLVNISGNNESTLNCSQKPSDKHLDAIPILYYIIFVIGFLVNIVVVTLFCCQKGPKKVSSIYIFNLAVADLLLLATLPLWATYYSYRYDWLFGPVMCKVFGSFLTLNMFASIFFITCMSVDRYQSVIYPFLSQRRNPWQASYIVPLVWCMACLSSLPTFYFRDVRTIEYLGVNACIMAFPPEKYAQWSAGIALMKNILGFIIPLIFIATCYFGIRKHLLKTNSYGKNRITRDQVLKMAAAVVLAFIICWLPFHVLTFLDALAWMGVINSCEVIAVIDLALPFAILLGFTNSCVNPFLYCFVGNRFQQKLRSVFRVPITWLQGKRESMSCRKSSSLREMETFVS

[3] = DRUGMATRIX: Glutamate, NMDA, Phencyclidine radioligand binding (ligand: [3H] TCP); format: cell membranes, Rattus norvegicus, Wistar, Cerebral cortex, Membrane; settings: Not Active = under 50% inhibition at 10 µM
[4] = target: Voltage-gated inwardly rectifying potassium channel KCNH2 (Homo sapiens, UniProt Q12809); settings: hek293; note: in other assays of this panel Not Active means under 50% inhibition at 10 µM
[5] = DRUGMATRIX: Calcium Channel Type L, Benzothiazepine radioligand binding (ligand: [3H] Diltiazem); format: cell membranes, Rattus norvegicus, Wistar, Brain, Membrane; settings: Not Active = under 50% inhibition at 10 µM
Acetylcholinesterase = Acetylcholinesterase (Homo sapiens, UniProt P22303); assay: DRUGMATRIX: Acetylcholinesterase enzyme inhibition (substrate: acetylthiocholine); format: cell-based, HEK293; settings: Not Active = under 50% inhibition at 10 µM
[6] = target: Mitogen-activated protein kinase 1 (Homo sapiens, UniProt P28482); assay: DRUGMATRIX: Protein Serine/Threonine Kinase, ERK2 enzyme inhibition (substrate: Myelin Basic Protein); parameters: species or system Escherichia coli; settings: Not Active = under 50% inhibition at 10 µM
[7] = target: T3, C-C chemokine receptor type 4 (Homo sapiens, UniProt P51679); format: cell membranes, Membrane; settings: chem-1; note: in other assays of this panel Not Active means under 50% inhibition at 10 µM
T3 sequence (P51679 whole entry): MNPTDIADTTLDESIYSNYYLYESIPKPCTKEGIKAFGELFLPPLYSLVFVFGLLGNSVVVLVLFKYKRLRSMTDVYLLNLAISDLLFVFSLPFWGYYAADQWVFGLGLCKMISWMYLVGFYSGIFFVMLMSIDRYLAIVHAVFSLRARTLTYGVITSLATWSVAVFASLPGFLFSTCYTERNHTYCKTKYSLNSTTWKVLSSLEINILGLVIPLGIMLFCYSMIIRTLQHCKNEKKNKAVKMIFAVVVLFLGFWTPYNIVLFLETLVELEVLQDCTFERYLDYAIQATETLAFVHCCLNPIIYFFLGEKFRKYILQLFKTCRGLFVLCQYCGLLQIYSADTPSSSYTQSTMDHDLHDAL

[8] = target: Tyrosine-protein kinase Fyn (Homo sapiens, UniProt P06241); assay: biochemical; format: cell-based, Insect cells
Cytochrome P450 3A4 = Cytochrome P450 3A4 (Homo sapiens, UniProt P08684); settings: bti-tn-5b1-4; note: in other assays of this panel Not Active means under 50% inhibition at 10 µM
[9] = target: Aldo-keto reductase family 1 member B1 (Rattus norvegicus, UniProt P07943); format: tissue-based, Lens of camera-type eye
[10] = target: T4, Neuropeptide Y receptor type 1 (Homo sapiens, UniProt P25929); format: cell membranes, Membrane; settings: sk-n-mc; note: in other assays of this panel Not Active means under 50% inhibition at 10 µM
T4 sequence (P25929 whole entry): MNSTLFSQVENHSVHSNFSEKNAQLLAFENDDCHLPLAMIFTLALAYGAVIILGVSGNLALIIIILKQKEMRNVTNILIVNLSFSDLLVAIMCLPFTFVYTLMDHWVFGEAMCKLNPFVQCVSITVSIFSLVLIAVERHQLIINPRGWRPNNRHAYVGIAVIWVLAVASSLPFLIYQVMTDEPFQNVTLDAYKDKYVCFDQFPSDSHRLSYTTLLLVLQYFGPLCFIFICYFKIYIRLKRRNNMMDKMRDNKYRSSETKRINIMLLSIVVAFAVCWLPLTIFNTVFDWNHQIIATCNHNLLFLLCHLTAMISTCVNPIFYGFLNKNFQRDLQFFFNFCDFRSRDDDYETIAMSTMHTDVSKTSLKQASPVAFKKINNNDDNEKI

[11] = DRUGMATRIX: Platelet-Derived Growth Factor (PDGF) radioligand binding (ligand: [125I] PDGF); format: cell-based; settings: nih3t3; Not Active = under 50% inhibition at 10 µM
[12] = DRUGMATRIX: Glutamate, NMDA, Agonism radioligand binding (ligand: [3H] CGP-39653); format: cell membranes, Rattus norvegicus, Wistar, Cerebral cortex, Membrane; settings: Not Active = under 50% inhibition at 10 µM

Chain of Cytochrome P450 3A4 (P08684 whole entry): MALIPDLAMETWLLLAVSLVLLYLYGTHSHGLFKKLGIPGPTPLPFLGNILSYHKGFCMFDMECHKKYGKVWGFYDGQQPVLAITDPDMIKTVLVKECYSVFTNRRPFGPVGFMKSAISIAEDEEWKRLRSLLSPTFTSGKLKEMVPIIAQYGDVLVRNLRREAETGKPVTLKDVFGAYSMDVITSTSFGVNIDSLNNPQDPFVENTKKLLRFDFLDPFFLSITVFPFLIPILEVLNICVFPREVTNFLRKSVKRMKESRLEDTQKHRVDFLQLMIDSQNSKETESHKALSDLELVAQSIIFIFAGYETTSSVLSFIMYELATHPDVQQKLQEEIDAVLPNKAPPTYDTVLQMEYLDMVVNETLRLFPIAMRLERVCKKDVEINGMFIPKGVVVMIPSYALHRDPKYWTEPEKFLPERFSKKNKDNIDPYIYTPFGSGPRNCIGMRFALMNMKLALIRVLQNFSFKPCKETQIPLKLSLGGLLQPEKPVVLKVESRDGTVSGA
Chain of Tyrosine-protein kinase Fyn (P06241 whole entry): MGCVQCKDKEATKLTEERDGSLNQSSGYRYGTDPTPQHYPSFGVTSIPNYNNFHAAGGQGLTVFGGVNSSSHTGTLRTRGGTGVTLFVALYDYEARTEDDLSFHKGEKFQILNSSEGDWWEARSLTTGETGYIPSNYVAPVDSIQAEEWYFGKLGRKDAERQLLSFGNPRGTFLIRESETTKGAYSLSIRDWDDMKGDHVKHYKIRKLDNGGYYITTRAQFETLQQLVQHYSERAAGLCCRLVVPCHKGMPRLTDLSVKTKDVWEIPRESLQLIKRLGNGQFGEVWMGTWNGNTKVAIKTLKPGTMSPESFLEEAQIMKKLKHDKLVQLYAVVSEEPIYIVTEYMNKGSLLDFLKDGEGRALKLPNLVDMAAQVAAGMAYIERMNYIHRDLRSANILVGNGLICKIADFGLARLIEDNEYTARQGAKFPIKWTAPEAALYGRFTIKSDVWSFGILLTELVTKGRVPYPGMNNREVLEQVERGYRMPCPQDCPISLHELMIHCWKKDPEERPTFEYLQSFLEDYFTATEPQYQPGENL
Chain of Mitogen-activated protein kinase 1 (P28482 whole entry): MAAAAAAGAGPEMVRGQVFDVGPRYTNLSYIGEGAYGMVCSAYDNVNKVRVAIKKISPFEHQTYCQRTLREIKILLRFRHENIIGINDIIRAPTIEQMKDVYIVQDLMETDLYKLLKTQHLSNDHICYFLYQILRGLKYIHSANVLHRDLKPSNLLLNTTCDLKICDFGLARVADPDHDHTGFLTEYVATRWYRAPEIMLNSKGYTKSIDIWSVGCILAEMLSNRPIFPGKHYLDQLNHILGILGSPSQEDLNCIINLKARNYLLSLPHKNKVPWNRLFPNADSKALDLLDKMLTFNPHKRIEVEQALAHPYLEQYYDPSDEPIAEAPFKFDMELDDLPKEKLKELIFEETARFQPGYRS
Chain of Voltage-gated inwardly rectifying potassium channel KCNH2 (Q12809 whole entry): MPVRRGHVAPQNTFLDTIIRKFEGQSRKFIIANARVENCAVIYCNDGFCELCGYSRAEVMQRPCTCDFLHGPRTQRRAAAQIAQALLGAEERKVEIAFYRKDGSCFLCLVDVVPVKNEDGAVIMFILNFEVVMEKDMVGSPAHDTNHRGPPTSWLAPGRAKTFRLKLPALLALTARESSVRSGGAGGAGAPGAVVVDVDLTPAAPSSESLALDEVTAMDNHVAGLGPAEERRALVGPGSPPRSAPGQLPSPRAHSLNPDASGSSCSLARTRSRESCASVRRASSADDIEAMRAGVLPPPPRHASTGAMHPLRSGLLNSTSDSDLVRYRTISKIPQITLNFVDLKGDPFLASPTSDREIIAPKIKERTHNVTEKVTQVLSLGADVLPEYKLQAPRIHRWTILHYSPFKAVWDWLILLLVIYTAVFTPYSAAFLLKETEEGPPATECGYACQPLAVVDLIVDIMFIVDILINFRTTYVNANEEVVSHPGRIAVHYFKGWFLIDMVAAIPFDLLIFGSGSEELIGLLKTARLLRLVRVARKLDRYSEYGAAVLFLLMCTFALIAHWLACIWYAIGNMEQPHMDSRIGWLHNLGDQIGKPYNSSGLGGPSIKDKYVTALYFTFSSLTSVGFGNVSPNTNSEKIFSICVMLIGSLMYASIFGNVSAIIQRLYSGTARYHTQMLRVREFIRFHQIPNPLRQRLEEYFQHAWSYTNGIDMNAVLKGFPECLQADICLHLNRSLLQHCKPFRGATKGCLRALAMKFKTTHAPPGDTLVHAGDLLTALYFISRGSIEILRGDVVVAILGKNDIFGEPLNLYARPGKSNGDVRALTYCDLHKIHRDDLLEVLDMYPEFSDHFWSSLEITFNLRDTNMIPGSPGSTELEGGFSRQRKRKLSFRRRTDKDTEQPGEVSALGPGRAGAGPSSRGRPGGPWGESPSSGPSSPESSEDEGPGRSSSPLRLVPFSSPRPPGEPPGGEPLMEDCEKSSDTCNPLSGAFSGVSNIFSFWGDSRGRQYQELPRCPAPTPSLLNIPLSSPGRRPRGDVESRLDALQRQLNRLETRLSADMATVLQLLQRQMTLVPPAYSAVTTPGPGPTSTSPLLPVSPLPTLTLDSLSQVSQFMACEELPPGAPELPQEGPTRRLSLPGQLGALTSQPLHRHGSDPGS
Chain of Acetylcholinesterase (P22303 whole entry): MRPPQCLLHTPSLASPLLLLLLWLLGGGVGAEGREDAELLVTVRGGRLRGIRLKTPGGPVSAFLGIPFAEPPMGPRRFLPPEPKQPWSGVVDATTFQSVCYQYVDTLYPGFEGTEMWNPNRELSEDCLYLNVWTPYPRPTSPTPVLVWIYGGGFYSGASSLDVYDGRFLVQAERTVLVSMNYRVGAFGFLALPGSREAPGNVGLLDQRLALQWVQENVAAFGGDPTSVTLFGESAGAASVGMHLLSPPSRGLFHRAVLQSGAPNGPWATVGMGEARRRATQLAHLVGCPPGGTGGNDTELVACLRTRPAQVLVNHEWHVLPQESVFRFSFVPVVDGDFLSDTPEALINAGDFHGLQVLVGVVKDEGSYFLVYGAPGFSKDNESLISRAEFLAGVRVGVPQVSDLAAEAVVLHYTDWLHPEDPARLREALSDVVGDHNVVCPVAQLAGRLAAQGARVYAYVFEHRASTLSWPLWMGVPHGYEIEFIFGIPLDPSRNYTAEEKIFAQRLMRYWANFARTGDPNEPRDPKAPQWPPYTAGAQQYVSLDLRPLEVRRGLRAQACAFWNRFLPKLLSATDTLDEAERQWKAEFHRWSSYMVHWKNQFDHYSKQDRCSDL
Chain of Mitogen-activated protein kinase 3 (P27361 whole entry): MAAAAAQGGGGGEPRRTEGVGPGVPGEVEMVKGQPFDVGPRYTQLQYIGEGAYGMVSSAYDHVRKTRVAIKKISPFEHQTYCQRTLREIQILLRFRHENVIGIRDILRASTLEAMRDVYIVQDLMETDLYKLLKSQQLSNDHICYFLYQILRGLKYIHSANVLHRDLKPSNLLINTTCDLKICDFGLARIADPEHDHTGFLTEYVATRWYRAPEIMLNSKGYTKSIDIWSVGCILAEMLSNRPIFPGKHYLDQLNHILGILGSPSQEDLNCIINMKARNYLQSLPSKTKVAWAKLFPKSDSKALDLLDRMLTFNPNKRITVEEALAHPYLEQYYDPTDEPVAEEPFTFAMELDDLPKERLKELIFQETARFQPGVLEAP

SMILES | IC50 (Substance-K receptor; cho) | IC50 [1] | IC50 [2] | IC50 [3] | Ki [3] | IC50 [4] | Ki [4] | IC50 [5] | Ki [5] | IC50 (Acetylcholinesterase; hek293) | IC50 [6] | IC50 [7] | IC50 (Cytochrome P450 3A4) | Ki (Cytochrome P450 3A4) | IC50 [9] | IC50 [10] | IC50 [11] | Ki [11] | IC50 [12] | Ki [12] | also measured
COc1ccc2cc(CC(=O)O)ccc2c1 | Not Active | Not Active | Not Active | Not Active | Not Active | Not Active | Not Active | Not Active | Not Active | Not Active | Not Active | Not Active | Not Active | Not Active | Not Active | Not Active | Not Active | Not Active | Not Active | Not Active | IC50 ([8]; insect cells): Not Active
c1ccc2c(c1)cc1ccc3cccc4ccc2c1c34 | Not Active | Not Active | Not Active | Not Active | Not Active | Not Active | Not Active | Not Active | Not Active | – | Not Active | Not Active | Not Active | Not Active | Not Active | Not Active | Not Active | Not Active | Not Active | Not Active | IC50 (Acetylcholinesterase; read-out: IC50): 28 µM; IC50 ([8]; read-out: IC50): 26.2 µM
CC=CC(=O)N(CC)c1ccccc1C | Not Active | Not Active | Not Active | Not Active | Not Active | Not Active | Not Active | Not Active | Not Active | Not Active | Not Active | Not Active | Not Active | Not Active | Not Active | Not Active | Not Active | Not Active | Not Active | Not Active | IC50 ([8]; insect cells): Not Active
C=C1C(=O)O[C@@H]2C3O[C@]3(C)CC/C=C(\C)CC[C@@H]12 (some centres not stated) | Not Active | Not Active | Not Active | Not Active | Not Active | Not Active | Not Active | Not Active | Not Active | Not Active | Not Active | Not Active | Not Active | Not Active | Not Active | Not Active | Not Active | Not Active | Not Active | Not Active | IC50 ([8]; insect cells): Not Active
CCCCCCCCCc1ccc(O)cc1 [4-NONYLPHENOL] | – | Not Active | Not Active | Not Active | Not Active | Not Active | Not Active | Not Active | Not Active | Not Active | Not Active | Not Active | Not Active | Not Active | Not Active | Not Active | Not Active | Not Active | Not Active | Not Active | IC50 (Substance-K receptor; read-out: IC50): 4.51 µM; Ki (Substance-K receptor; read-out: Ki): 1.51 µM; IC50 ([8]; insect cells): Not Active
COc1ccc2c(c1)c(CC(=O)OCC(=O)O)c(C)n2C(=O)c1ccc(Cl)cc1 [ACEMETACIN] | Not Active | Not Active | Not Active | Not Active | Not Active | Not Active | Not Active | Not Active | Not Active | Not Active | Not Active | Not Active | Not Active | Not Active | Not Active | Not Active | Not Active | Not Active | Not Active | Not Active | IC50 ([8]; insect cells): Not Active
Cc1[nH]cnc1CN1CCc2c(c3ccccc3n2C)C1=O [ALOSETRON] | Not Active | Not Active | Not Active | Not Active | Not Active | Not Active | Not Active | Not Active | Not Active | Not Active | Not Active | Not Active | Not Active | Not Active | Not Active | Not Active | Not Active | Not Active | Not Active | Not Active | IC50 ([8]; insect cells): Not Active
COc1ccc(CN(CCN(C)C)c2ccccn2)cc1 [PYRILAMINE] | Not Active | Not Active | Not Active | Not Active | Not Active | – | – | Not Active | Not Active | Not Active | Not Active | Not Active | Not Active | Not Active | Not Active | Not Active | Not Active | Not Active | Not Active | Not Active | IC50 ([8]; insect cells): Not Active

— ChEMBL document CHEMBL1909046, “DrugMatrix in vitro pharmacology data”
